{"source": "paper PMC2661369", "about": "“The Signal Peptide of Staphylococcus aureus Panton Valentine Leukocidin LukS Component Mediates Increased Adhesion to Heparan Sulfates” (PLoS ONE, 2009)", "molecules": {"B1": {"name": "heparinase III: heparinase III (Sigma) (protein, UniProt Q59289 25-659, looked up)", "Heparin-sulfate lyase": "QSSSITRKDFDHINLEYSGLEKVNKAVAAGNYDDAAKALLAYYREKSKAREPDFSNAEKPADIRQPIDKVTREMADKALVHQFQPHKGYGYFDYGKDINWQMWPVKDNEVRWQLHRVKWWQAMALVYHATGDEKYAREWVYQYSDWARKNPLGLSQDNDKFVWRPLEVSDRVQSLPPTFSLFVNSPAFTPAFLMEFLNSYHQQADYLSTHYAEQGNHRLFEAQRNLFAGVSFPEFKDSPRWRQTGISVLNTEIKKQVYADGMQFELSPIYHVAAIDIFLKAYGSAKRVNLEKEFPQSYVQTVENMIMALISISLPDYNTPMFGDSWITDKNFRMAQFASWARVFPANQAIKYFATDGKQGKAPNFLSKALSNAGFYTFRSGWDKNATVMVLKASPPGEFHAQPDNGTFELFIKGRNFTPDAGVFVYSGDEAIMKLRNWYRQTRIHSTLTLDNQNMVITKARQNKWETGNNLDVLTYTNPSYPNLDHQRSVLFINKKYFLVIDRAIGEATGNLGVHWQLKEDSNPVFDKTKNRVYTTYRDGNNLMIQSLNADRTSLNEEEGKVSYVYNKELKRPAFVFEKPKKNAGTQNFVSIVYPYDGQKAPEISIRENKGNDFEKGKLNLTLTINGKQQLVLVP"}}, "key": {"[1]": {"test_system": "ECM components", "assay_type": "cell-based, Staphylococcus aureus", "conditions": "constructs expressed in LUG960 (RN6390 in b7), P-luk-PV promoter; ECM proteins 5 µg/mL, absorbance at 540 nm"}, "[2]": {"test_system": "Panton Valentine Leukocidin", "test": "Quantification of Panton Valentine Leukocidin production by ELISA", "assay_type": "cell-based, Staphylococcus aureus", "conditions": "supernatant after 24 h of culture, mean±SD, in duplicate", "protocol": "The level of PVL production in the supernatant after 24 h of staphylococcal culture was determined in duplicate by using an ELISA method as described previously.\nThe level of PVL production in the supernatant after 24h of culture was determined in duplicate by using an ELISA method as described previously."}, "[3]": {"assay_type": "physicochemical", "conditions": "purified synthetic peptide", "description": "To gain insight into the structure and lipotropic properties of the LukS-PV and LukF-PV signal peptides, the solubility and conformation of the corresponding purified synthetic peptides were examined under various stabilizing conditions by using either cosolvents (TFE: water mixtures, SDS) that are very useful tools for probing the propensity of peptides for secondary structure formation ([11], [12], and references therein), or membrane mimetic media including lysolipid (lysophosphatidyl choline, LPC), and detergents (DM, LPC and DPC). […] TFE is known to solubilize hydrophobic peptides as monomers and to stabilize the folding of peptidic sequences with an intrinsic propensity to adopt an α-helical structure. […] Various CD deconvolution methods used indicate a predominant α-helix content ranging from 64 to 77% in SDS and in TFE 50% for LukS-PV signal peptide, but only of about 40% for LukF-PV signal peptide in both media. […] These findings are consistent with the computer prediction that this peptide could easily aggregate (score of 0.8 with Zyggregator [13]). […] Taken together, these analyses indicate that after its processing by the signal peptidase, the LukS-PV signal peptide could readily leave the membrane translocon context and incorporate to the cytosolic or the extracellular aqueous environment."}, "[4]": {"test_system": "matrix protein", "test": "Effect of heparinase III digestion of ECM proteins on bacterial adhesion", "assay_type": "cell-based, Staphylococcus aureus", "conditions": "increasing concentrations added to coated wells, 1 h at room temperature, before adhesion assay", "protocol": "Figure 4 Inhibition of adhesion to collagen IV by heparinase. Isogenic strains of Staphylococcus aureus examined for their binding capacity (Y-axis, absorbance reading at 540 nm) to collagen IV (Sigma) coated on 96-well plates, at concentrations of 5 µg/mL. Heparinase III was added at increasing concentrations (X-axis) to collagen IV (Sigma) before the adhesion assay. Parental (LUG960) indicates the genetic background in which the genetic modifications were made; LukS-PV SP, parental carrying a plasmid encoding the LukS-PV signal peptide. The vertical lines indicate the standard deviations.\nTo test the effect of digestion of ECM proteins with heparinase, increasing concentrations of heparinase III (Sigma) were added to laminin, elastin and type V, IV, I collagens (Sigma) coated wells, and incubated for 1 h at room temperature. After treatment, the wells were washed with 200 µL PBS 3 times, blocked with 200 µL of 0.2% BSA in PBS at 4°C for 2 h, and used in the adhesion assay."}}, "note": "Where no end group is shown, it is not given here."}
{"molecule": "LukS-PV ΔSP: plasmid encoding LukS-PV without signal peptide (MVKKRLLAATLSLGIITPIATSFHESKA)", "values": [{"measurement": "adhesion phenotype of expressing strain", "setting": "[1]", "result": "basal level of attachment"}, {"measurement": "PVL levels", "setting": "[2]", "result": "2.39 ± 0.04", "unit": "µg/mL"}]}
{"molecule": "MVKKRLLAATLSLGIITPIATSFHESKA [LukS-PV signal peptide]", "values": [{"measurement": "solubility in water", "setting": "[3]", "result": "largely soluble in water"}]}
{"molecule": "B1", "values": [{"measurement": "effect of heparinase on bacterial adhesion", "setting": "[4]", "result": "the bacterial adhesion decreased in a dose-dependent manner"}]}
